From PubChem BioAssay (NCI)
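Method: 48-hour compound exposure of cells in 96-well plates, five concentrations, linear interpolation of endpoints. TGI: total growth inhibition.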

How the values were obtained:
Test in all cases: NCI-60 cell line screen, 48 h
T-47D breast = tested on: T-47D breast
KM12 colon = tested on: KM12 colon
EKVX NSCLC = tested on: EKVX NSCLC
RXF 393 renal = tested on: RXF 393 renal
NCI-H460 lung = tested on: NCI-H460 lung
SW-620 colon = tested on: SW-620 colon
SK-MEL-28 melanoma = tested on: SK-MEL-28 melanoma
NCI-H226 lung = tested on: NCI-H226 lung
MDA-N = tested on: MDA-N
COLO 205 colon = tested on: COLO 205 colon
SK-OV-3 ovarian = tested on: SK-OV-3 ovarian

Row | Structure (SMILES) | TGI (T-47D breast) | TGI (KM12 colon) | TGI (EKVX NSCLC) | TGI (RXF 393 renal) | TGI (NCI-H460 lung) | TGI (SW-620 colon) | TGI (SK-MEL-28 melanoma) | TGI (NCI-H226 lung) | TGI (MDA-N) | TGI (COLO 205 colon) | TGI (SK-OV-3 ovarian)
1 | O=C1C(Br)=Cc2c(Cl)sc(Cl)c21 | 7.58 µM | 20.3 µM | 22.2 µM | 6.17 µM | 53.3 µM | 12.9 µM | 41.3 µM | > 100 µM | 8.7 µM | 23.6 µM | 35.8 µM
2 | C/C(=N/NC(=S)Nc1cccc(C)c1)c1ccccn1 | 12.4 µM | 4.12 µM | 2.3 µM | 3.55 µM | 5.59 µM | 5.45 µM | 7.61 µM | 1.28 µM | 3.61 µM | 1.34 µM | 2.78 µM
3 | C=CC/C(C(=O)OC)=C(/C(=O)OC)N(CCC)CCC | > 100 µM | > 100 µM | > 100 µM | > 100 µM | > 100 µM | > 100 µM | > 100 µM | > 100 µM | > 100 µM | > 100 µM | > 100 µM
4 | CN1CN(c2ccccc2)C2(CCN(CCCC3(c4cccs4)OCCO3)CC2)C1=O | > 100 µM | > 100 µM | > 100 µM | > 100 µM | > 100 µM | > 100 µM | > 100 µM | > 100 µM | > 100 µM | > 100 µM | > 100 µM
5 | CC1=CC=CC(C)(C)CC1(O[Si](C)(C)C)C(F)(F)F (stereo unspecified) | > 100 µM | > 100 µM | > 100 µM | > 100 µM | > 100 µM | > 100 µM | > 100 µM | > 100 µM | > 100 µM | > 100 µM | > 100 µM
6 | N#CSCc1cccc(Nc2cc(=O)[nH]c(=O)[nH]2)c1 | > 100 µM | > 100 µM | > 100 µM | > 100 µM | > 100 µM | > 100 µM | > 100 µM | > 100 µM | > 100 µM | > 100 µM | > 100 µM
7 | Cc1nc2cc(C(F)(F)F)ccc2[nH]c1=O | > 100 µM | > 100 µM | > 100 µM | > 100 µM | > 100 µM | > 100 µM | > 100 µM | > 100 µM | > 100 µM | > 100 µM | > 100 µM
8 | O=C1/C(=C/c2ccc(F)cc2)CNC/C1=C\c1ccc(F)cc1 | 20.3 µM | 1.59 µM | 4.64 µM | 3.41 µM | 2.36 µM | 0.754 µM | 2.68 µM | 15.3 µM | 5.67 µM | 3.42 µM | 29.6 µM
9 | NCCCC(N)C(=O)O (stereo unspecified) | > 100 µM | > 100 µM | > 100 µM | > 100 µM | > 100 µM | > 100 µM | > 100 µM | > 100 µM | > 100 µM | > 100 µM | > 100 µM
10 | O=c1c2cc(I)ccc2[nH]c(=S)n1Cc1ccccc1 | > 100 µM | > 100 µM | 35.4 µM | 78 µM | > 100 µM | > 100 µM | > 100 µM | > 100 µM | > 100 µM | > 100 µM | > 100 µM
11 | CCN(CC)CCCn1c(=O)c2cccnc2n2c3c(=O)n(C)c(=O)n(C)c3nc12 | > 100 µM | > 100 µM | > 100 µM | > 100 µM | > 100 µM | > 100 µM | > 100 µM | > 100 µM | > 100 µM | > 100 µM | > 100 µM
